Source: publication PMC3537142 (EMBO Reports, 2012)
Substitutions are numbered along the chain they refer to.

Assays:
construct C6 = target: T1, construct C6 (Aplysia californica, UniProt Q8WSF8, C207E/C208S/E210N/INS206M/P209S/P211Y); experiment: [3H]granisetron binding to single-loop construct
T1 sequence (Q8WSF8 with tags, fused parts or gaps INS206M/C207E/C208S/P209S/E210N/P211Y): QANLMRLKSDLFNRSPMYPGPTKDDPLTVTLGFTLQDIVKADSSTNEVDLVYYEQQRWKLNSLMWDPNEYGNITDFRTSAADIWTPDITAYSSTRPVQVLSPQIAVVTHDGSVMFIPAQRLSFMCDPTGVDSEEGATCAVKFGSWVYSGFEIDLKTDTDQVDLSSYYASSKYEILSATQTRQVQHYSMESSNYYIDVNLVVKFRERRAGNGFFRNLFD

construct C5 = target: T2, construct C5 (Aplysia californica, UniProt Q8WSF8, C207M/C208E/E210S/P209S/P211N); experiment: [3H]granisetron binding to single-loop construct
T2 sequence (Q8WSF8 20-236 C207M/C208E/P209S/E210S/P211N): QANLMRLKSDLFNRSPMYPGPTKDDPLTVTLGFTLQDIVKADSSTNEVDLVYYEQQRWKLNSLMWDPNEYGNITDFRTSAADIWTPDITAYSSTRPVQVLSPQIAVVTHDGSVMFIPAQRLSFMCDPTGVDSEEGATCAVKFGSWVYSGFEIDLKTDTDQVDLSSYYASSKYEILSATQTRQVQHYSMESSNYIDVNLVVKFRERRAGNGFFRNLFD

construct E3 = target: T3, construct E3 (Aplysia californica, UniProt Q8WSF8, I123Y/I135Y/V125Y); experiment: [3H]granisetron binding to single-loop construct
T3 sequence (Q8WSF8 20-236 I123Y/V125Y/I135Y): T2 sequence (Q8WSF8 20-236 C207M/C208E/P209S/E210S/P211N) with I104Y, V106Y, I116Y, M188C, E189C, S190P, S191E, N192P

[1] = target: T4, 5HTBP construct A1 (S92E) (Aplysia californica, UniProt Q8WSF8, S111E); experiment: Competition binding with [3H]granisetron; conditions: read-out: Ki, [3H]granisetron binding; single mutant construct A1 (S92E)
T4 sequence (Q8WSF8 20-236 S111E): T2 sequence (Q8WSF8 20-236 C207M/C208E/P209S/E210S/P211N) with S92E, M188C, E189C, S190P, S191E, N192P

5HTBP construct A1 B2 D2 = target: T5, 5HTBP construct A1 B2 D2 (Aplysia californica, UniProt Q8WSF8, K160T/Q74R/S111E/V159L/Y72W); experiment: Competition binding with [3H]granisetron; conditions: NB = no binding
T5 sequence (Q8WSF8 20-236 Y72W/Q74R/S111E/V159L/K160T): T2 sequence (Q8WSF8 20-236 C207M/C208E/P209S/E210S/P211N) with Y53W, Q55R, S92E, V140L, K141T, M188C, E189C, S190P, S191E, N192P

[2] = target: T6, 5HTBP construct D2 (Y53W, Q55R) (Aplysia californica, UniProt Q8WSF8, Q74R/Y72W); experiment: Competition binding with [3H]granisetron; conditions: read-out: Granisetron Ki, [3H]granisetron binding
T6 sequence (Q8WSF8 20-236 Y72W/Q74R): T2 sequence (Q8WSF8 20-236 C207M/C208E/P209S/E210S/P211N) with Y53W, Q55R, M188C, E189C, S190P, S191E, N192P

construct E1 = target: T7, construct E1 (Aplysia californica, UniProt Q8WSF8, I135Y); experiment: [3H]granisetron binding to single-loop construct
T7 sequence (Q8WSF8 20-236 I135Y): T2 sequence (Q8WSF8 20-236 C207M/C208E/P209S/E210S/P211N) with I116Y, M188C, E189C, S190P, S191E, N192P

[3] = target: T8, construct A2NE (Y91N, S92E) (Aplysia californica, UniProt Q8WSF8, S111E/Y110N); experiment: [3H]granisetron binding to single-loop construct
T8 sequence (Q8WSF8 20-236 Y110N/S111E): T2 sequence (Q8WSF8 20-236 C207M/C208E/P209S/E210S/P211N) with Y91N, S92E, M188C, E189C, S190P, S191E, N192P

[4] = target: T9, 5HTBP construct A1 B2 D1W (Aplysia californica, UniProt Q8WSF8, K160T/S111E/V159L/Y72W); experiment: SPR biosensor assay; conditions: construct A1B2D1W; stated for both [3H]granisetron binding and SPR
T9 sequence (Q8WSF8 20-236 Y72W/S111E/V159L/K160T): T2 sequence (Q8WSF8 20-236 C207M/C208E/P209S/E210S/P211N) with Y53W, S92E, V140L, K141T, M188C, E189C, S190P, S191E, N192P

AChBPs = conditions: ref [4], [5]; cited from earlier work

Question: Which results are given for `CN1C2CCCC1CC(NC(=O)c1nn(C)c3ccccc13)C2` (stereo not shown) [[^3H]granisetron, [3H]BRL-43694]?
Answer: [3H]granisetron binding (construct C6): did not show detectable [^3H]granisetron binding; [3H]granisetron binding (construct C5): did not show detectable [^3H]granisetron binding; [3H]granisetron binding (construct E3): no detectable [^3H]granisetron binding; Ki [1]: 270 ± 51 nM; Granisetron Ki, [3H]granisetron binding (5HTBP construct A1 B2 D2): no longer bound; Ki [2]: 454 ± 71 nM; [3H]granisetron binding (construct E1): no detectable [^3H]granisetron binding; [3H]granisetron binding [3]: failed to bind

Question: Which “increase in the affinity compared with wild-type Ac-AChBP” value [4] does the source give for `NCCc1c[nH]c2ccc(O)cc12` [Serotonin, 5-hydroxytryptamine] here?
Answer: The value was roughly 40 fold.

Question: And the “lower affinity than acetylcholine” value (AChBPs)?
Answer: The value was roughly 60 fold.
